One block for each compound: values may come before it.
Key:
[1] = tested on: human diffuse large B lymphoma (TMD-8); assay: In-vitro tumor cell proliferation inhibition (CCK-8), TMD-8; conditions: TMD8, 72 h, read-out: Tumor cell proliferation inhibitory activity (IC50, nM) TMD-8
[2] = target: BTK Kinase (Homo sapiens (Human), UniProt Q06187); assay: In-vitro Btk kinase inhibitory activity assay; format: biochemical
Protocol: In-Vitro Btk Kinase Inhibitory Activity Assay for Compounds of the Present Invention:
10 μL of the 50× drug stock solution was added to a 96-well plate and then 90 μL of a 1× Kinase Buffer was added and the 96-well plate was shaken for 10 minutes on a shaker. From each well of the 96-well plate, 5 μL of the drug solution was taken and then transferred to a 384-well plate which was provided with 2 duplicate wells.
Preparation of a 2.5× Kinase Buffer: an enzyme was added to the 1× kinase base buffer.
Prepare a 2.5× oligopeptide solution: FAM-labeled oligopeptide and ATP were added to the 1× kinase base buffer.
10 μL of the 2.5× Kinase Buffer was added to the 384-well plate loaded with 5 μL of the drug solution and incubation was then carried out for 10 minutes at room temperature. 10 μL of the 2.5× oligopeptide solution was added to the 384-well plate and incubation was then carried out for 1 hour at 28° C. The reaction was stopped by adding 25 μL of a stop buffer. The readings were recorded and the inhibition rate of the compound on the enzyme was calculated. The IC50 of BTK kinase was calculated by fitting.

[3] = tested on: human lung cancer cell (A549); assay: In-vitro tumor cell proliferation inhibition (CCK-8), A549; conditions: A549, 72 h, read-out: Tumor cell proliferation inhibitory activity (IC50, μM) A549
Protocol: (§1) The in-vitro antitumor activity assay was carried out on the synthesized compound by using different solid tumors and leukemia cell lines:
(§2) Cell lines: human lung cancer cell (A549), human mantle cell lymphoma (MINO), diffuse giant B-cell lymphoma (OCI-LY10), and human diffuse large B lymphoma (TMD-8).
(§3) Preparation method of the drug: the drug was dissolved in DMSO to make a 10 mM stock solution, and then the stock solution was diluted in a certain ratio to obtain 5 different concentrations (test concentration 100×). In-vitro culture of tumor cells:
(§4) The tumor cells A549, MINO, OCI-LY10, and TMD-8 were seeded in a 96-well plate at 4000 cells/200 μL/well and then incubated overnight at 37° C. in a 5% CO2 cell culture incubator. 2 μL of the compound was added to each well to final concentrations of 50 μM, 10 μM, 2 μM, 0.4 μM, and 0.08 μM and then incubated for 72 hours at 37° C. in a 5% CO2 cell incubator, with DMSO (2%) as a control group. […] Wells loaded with the corresponding amount of cell culture fluid the and CCK-8 solution but no cells were considered as blank controls. The absorbance (OD value) was measured at 450 nm using a microplate reader, and the obtained data was used to calculate IC50.

[4] = tested on: human mantle cell lymphoma (MINO); assay: In-vitro tumor cell proliferation inhibition (CCK-8), MINO; conditions: 72 h, read-out: Tumor cell proliferation inhibitory activity (IC50, μM) MINO
Protocol: as §1, §2, §3, §4

[5] = tested on: diffuse giant B-cell lymphoma (OCI-LY10); assay: In-vitro tumor cell proliferation inhibition (CCK-8), OCI-LY10; conditions: Homo sapiens, OCI-Ly10, 72 h, read-out: Tumor cell proliferation inhibitory activity (IC50, nM) OCI-LY10
[6] = target: hERG potassium channel (Homo sapiens (Human), UniProt Q12809); assay: hERG potassium channel inhibitory activity, manual patch clamp in CHO cells; format: cell-based; conditions: CHO cells stably expressing hERG, whole-cell patch clamp
Protocol: The cells used in this experiment were CHO cell lines transfected with HergCdna and stably expressing Herg channels (supplied by Sophion Bioscience, Denmark). The cells were cultured in a medium containing the following components (all from Invitrogen): Ham's F12 medium, 10% (v/v) inactivated fetal bovine serum, 100 μg/ml hygromycin B, 100 μg/ml Geneticin. […] 24 to 48 hours before an electrophysiological experiment, CHO Herg cells were transferred to circular slides placed in the culture dishes and grow with the same culture liquid under the same culture conditions as above. The density of CHO Herg cells on each circular slide was required to reach such a value that most cells were independent and stand alone.
2. Treatment and Dilution of a Compound
Before the test, the compound was first diluted with DMSO at gradient to make stock solutions with concentrations of 10, 3, 1, 0.3 and 0.1 Mm and the stock solutions were then diluted with extracellular fluid to a final Mm test concentration. Except that the DMSO concentration in the 30 Mm compound test solution was 0.3%, the final concentration of DMSO in each of the compound solutions with other concentrations was 0.1%. The test concentration of a positive control Cisapridewas 0.1 Mm. All compound solutions were conventionally sonicated and shaken for 5 to 10 minutes to ensure complete dissolution of the compound.
3. Electrophysiological Recording System and Data Analysis
This experiment uses a manual patch clamp system (HEKA EPC-10 signal amplifier and digital conversion system, purchased from HEKA Electronics, Germany) for the recording of whole cell currents. The circular slides with CHO Herg cells growing on the surfaces were placed in an electrophysiological recording slot under an inverted microscope. The extracellular fluid was used for continuous perfusion in the recording slot (approximately lml per minute). The experimental procedure uses a conventional whole-cell patch clamp current recording technique. Unless otherwise stated, the experiment was carried out at regular room temperature ([…]). The cells were clamped at a voltage of −80 Mv. The cell clamp voltage was depolarized to +20 Mv to activate the Herg potassium channel, and 5 seconds later, it was clamped to −50 Mv to eliminate inactivation and generate tail current. The peak of the tail current was used as the value of the Herg current. After the hERG potassium current recorded in the above step was stabilized under the continuous extracellular fluid perfusion in the recording slot, the drug to be tested can be superimposed to the perfusion until the inhibitory effect of the drug on the hERG current reaches a steady state. Generally, the criterion for determine whether or not the stable state was reached was that the recent three consecutive current recording lines were coincident. After the steady state was reached, extracellular fluid perfusion was carried out for flushing until the hERG current returns to the magnitude before the drug was added. One cell may be used for testing one or more drugs, or multiple concentrations of the same drug, and flushing with extracellular fluid was carried out between tests of different drugs. Cisapride (purchased from Sigma) was used in the experiment as a positive control to ensure that the cells used were of normal quality. The test data was analyzed by data analysis software provided by HEKA Patchmaster, Microsoft Excel and Graphpad Prism.

[7] = Oral pharmacokinetic experiment in SD rats; format: in vivo
Protocol: SD rats were used as experimental animals and were subjected to intragastric administration in a dose of 10 mg/kg and tail-vein intravenous injection in a dose of 2 mg/kg. The tail-vein blood sampling time points in the intragastric administration were 0.17, 0.33, 0.5, 1, 1.5, 2, 4, 6, 8, 12, and 24 hours; the blood sampling time points in the intravenous administration were 0.05, 0.1, 0.17, 0.5, 1, 2, 4, 6, 8, 12, and 24 hours. 0.3 ml of whole blood was taken, and 0.1 ml of plasma after centrifugation was taken and analyzed by LC-MS.

[8] = oral (intragastric) 10 mg/kg, mean n = 3

BTK Kinase, sequence (Q06187 whole entry): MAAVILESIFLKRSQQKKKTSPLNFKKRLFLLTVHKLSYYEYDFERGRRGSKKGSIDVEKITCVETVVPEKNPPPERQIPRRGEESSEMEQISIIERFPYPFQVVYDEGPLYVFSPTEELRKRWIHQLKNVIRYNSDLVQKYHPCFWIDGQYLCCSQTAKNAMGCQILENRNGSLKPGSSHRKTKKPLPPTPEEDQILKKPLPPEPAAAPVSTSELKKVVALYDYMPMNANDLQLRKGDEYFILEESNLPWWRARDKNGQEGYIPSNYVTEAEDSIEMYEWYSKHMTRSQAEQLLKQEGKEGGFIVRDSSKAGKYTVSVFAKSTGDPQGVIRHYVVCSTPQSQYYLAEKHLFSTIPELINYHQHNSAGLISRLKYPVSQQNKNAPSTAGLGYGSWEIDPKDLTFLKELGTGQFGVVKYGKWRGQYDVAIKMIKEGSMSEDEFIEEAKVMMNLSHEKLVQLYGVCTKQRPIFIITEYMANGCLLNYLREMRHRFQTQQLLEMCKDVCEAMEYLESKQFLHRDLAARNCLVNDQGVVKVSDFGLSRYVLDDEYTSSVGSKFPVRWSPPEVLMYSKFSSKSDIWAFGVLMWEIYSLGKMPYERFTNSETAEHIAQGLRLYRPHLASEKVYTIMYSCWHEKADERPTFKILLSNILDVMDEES
hERG potassium channel, sequence (Q12809 whole entry): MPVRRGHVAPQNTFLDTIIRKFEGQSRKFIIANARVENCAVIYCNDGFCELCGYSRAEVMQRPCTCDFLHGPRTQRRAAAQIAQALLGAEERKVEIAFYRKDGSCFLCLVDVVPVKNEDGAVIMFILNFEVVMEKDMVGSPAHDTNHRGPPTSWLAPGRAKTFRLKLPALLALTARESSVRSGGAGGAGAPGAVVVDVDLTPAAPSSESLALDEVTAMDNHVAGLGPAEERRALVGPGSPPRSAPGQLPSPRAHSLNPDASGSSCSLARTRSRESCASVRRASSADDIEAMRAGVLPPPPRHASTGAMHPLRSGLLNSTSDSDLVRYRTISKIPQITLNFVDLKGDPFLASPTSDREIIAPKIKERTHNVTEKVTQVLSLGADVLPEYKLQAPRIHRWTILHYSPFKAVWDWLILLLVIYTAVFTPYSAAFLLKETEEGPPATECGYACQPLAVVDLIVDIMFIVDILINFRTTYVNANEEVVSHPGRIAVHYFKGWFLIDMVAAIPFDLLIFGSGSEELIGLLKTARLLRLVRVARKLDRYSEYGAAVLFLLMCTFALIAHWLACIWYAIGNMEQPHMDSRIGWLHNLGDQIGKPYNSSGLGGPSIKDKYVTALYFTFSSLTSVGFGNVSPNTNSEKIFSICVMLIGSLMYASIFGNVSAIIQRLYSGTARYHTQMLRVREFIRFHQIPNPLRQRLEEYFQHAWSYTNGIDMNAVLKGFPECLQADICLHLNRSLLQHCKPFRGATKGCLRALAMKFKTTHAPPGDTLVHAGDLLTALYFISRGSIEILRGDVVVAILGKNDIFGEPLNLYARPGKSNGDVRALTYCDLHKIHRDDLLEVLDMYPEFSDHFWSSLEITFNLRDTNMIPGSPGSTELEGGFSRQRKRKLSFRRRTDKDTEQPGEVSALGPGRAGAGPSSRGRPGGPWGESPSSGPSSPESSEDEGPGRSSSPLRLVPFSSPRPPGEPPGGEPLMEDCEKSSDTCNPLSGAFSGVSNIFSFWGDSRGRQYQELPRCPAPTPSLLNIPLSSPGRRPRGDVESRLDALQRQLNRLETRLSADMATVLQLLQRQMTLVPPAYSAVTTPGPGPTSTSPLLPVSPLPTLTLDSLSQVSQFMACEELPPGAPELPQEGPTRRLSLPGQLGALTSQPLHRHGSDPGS

IC50 [1]: 4.12 nM
IC50 [2]: 8.6 nM
IC50 [3]: 2.06 µM
IC50 [4]: 6.23 µM
IC50 [5]: 2.23 nM
Structure (SMILES): C=CC(=O)N1CCC[C@@H](n2nc(-c3ccc(Oc4cccc(F)c4)nc3)c3c(N)ncnc32)C1 [Compound 15c, (R)-1-(3-(4-amino-3-(6-(3-fluorophenoxypyridine)-3-yl)-1H-pyrazolo[3,4-d]pyrimidin-1-yl)piperidin-1-yl)prop-2-en-1-one]

IC50 [1]: 3.83 nM
IC50 [2]: 7.5 nM
IC50 [3]: 5.12 µM
IC50 [4]: 9.15 µM
IC50 [5]: 5.12 nM
Structure (SMILES): C=CC(=O)N1CCC[C@@H](n2nc(-c3ccc(Oc4ccccc4F)nc3)c3c(N)ncnc32)C1 [Compound 15d, (R)-1-(3-(4-amino-3-(6-(2-fluorophenoxypyridine)-3-yl)-1H-pyrazolo[3,4-d]pyrimidin-1-yl)piperidin-1-yl)prop-2-en-1-one]

IC50 [2]: 10.5 nM
Structure (SMILES): C=CC(=O)N1CCC[C@@H](n2nc(-c3ccc(Oc4ccc(Cl)cc4)nc3)c3c(N)ncnc32)C1 [Compound 15e, (R)-1-(3-(4-amino-3-(6-(4-chlorophenoxypyridine)-3-yl)-1H-pyrazolo[3,4-d]pyrimidin-1-yl)piperidin-1-yl)prop-2-en-1-one]

IC50 [2]: 25.3 nM
Structure (SMILES): C=CC(=O)N1CCC[C@@H](n2nc(-c3ccc(Oc4ccc(F)c(F)c4)nc3)c3c(N)ncnc32)C1 [Compound 15f, (R)-1-(3-(4-amino-3-(6-(3,4-difluorophenoxypyridine)-3-yl)-1H-pyrazolo[3,4-d]pyrimidin-1-yl)piperidin-1-yl)prop-2-en-1-one]

IC50 [2]: 7.8 nM
Structure (SMILES): C=CC(=O)N1CCC[C@@H](n2nc(-c3ccc(Oc4c(F)cccc4F)nc3)c3c(N)ncnc32)C1 [Compound 15g, (R)-1-(3-(4-amino-3-(6-(2,6-difluorophenoxypyridine)-3-yl)-1H-pyrazolo[3,4-d]pyrimidin-1-yl)piperidin-1-yl)prop-2-en-1-one]

IC50 [2]: 3.2 nM
Structure (SMILES): C=CC(=O)N1CCC[C@@H](n2nc(-c3ccc(Oc4cccc(F)c4F)nc3)c3c(N)ncnc32)C1 [Compound 15h, (R)-1-(3-(4-amino-3-(6-(2,3-difluorophenoxypyridine)-3-yl)-1H-pyrazolo[3,4-d]pyrimidin-1-yl)piperidin-1-yl)prop-2-en-1-one]

IC50 [2]: 32.5 nM
Structure (SMILES): C=CC(=O)N1CCC[C@@H](n2nc(-c3ccc(Oc4ccc(OC)cc4)nc3)c3c(N)ncnc32)C1 [Compound 15j]
IC50 [6]: 17500 nM

IC50 [2]: 18.2 nM
Structure (SMILES): C=CC(=O)N1CCC[C@@H](n2nc(-c3ccc(Oc4ccc(C(F)(F)F)cc4)nc3)c3c(N)ncnc32)C1 [Compound 15k, (R)-1-(3-(4-amino-3-(6-(4-trifluoromethylphenoxypyridine)-3-yl)-1H-pyrazolo[3,4-d]pyrimidin-1-yl)piperidin-1-yl)prop-2-en-1-one]

IC50 [2]: 8.9 nM
Structure (SMILES): C=CC(=O)N1CCC[C@@H](n2nc(-c3cnc(Oc4ccccc4)cc3F)c3c(N)ncnc32)C1 [Compound 16a, (R)-1-(3-(4-amino-3-(4-fluoro-6-phenoxypyridin-3-yl)-1H-pyrazolo[3,4-d]pyrimidin-1-yl)piperidin-1-yl)prop-2-en-1-one]
IC50 [6]: 6900 nM

IC50 [2]: 8.6 nM
Structure (SMILES): C=CC(=O)N1CCC[C@@H](n2nc(-c3cnc(Oc4ccccc4)c(F)c3)c3c(N)ncnc32)C1 [Compound 16b, (R)-1-(3-(4-amino-3-(5-fluoro-6-phenoxypyridin-3-yl)-1H-pyrazolo[3,4-d]pyrimidin-1-yl)piperidin-1-yl)prop-2-en-1-one]

IC50 [2]: 6.6 nM
Structure (SMILES): C=CC(=O)N1CCC[C@@H](n2nc(-c3cnc(Oc4ccccc4)cc3C)c3c(N)ncnc32)C1 [Compound 16c, (R)-1-(3-(4-amino-3-(4-methyl-6-phenoxypyridin-3-yl)-1H-pyrazolo[3,4-d]pyrimidin-1-yl)piperidin-1-yl)prop-2-en-1-one]

IC50 [2]: 7.2 nM
Structure (SMILES): C=CC(=O)N1CCC[C@@H](n2nc(-c3ccc(Oc4ccccc4)nc3C)c3c(N)ncnc32)C1 [Compound 16d, (R)-1-(3-(4-amino-3-(2-methyl-6-phenoxypyridin-3-yl)-1H-pyrazolo[3,4-d]pyrimidin-1-yl)piperidin-1-yl)prop-2-en-1-one]

Structure (SMILES): Nc1ncnc2c1c(-c1ccc(Oc3ccccc3)nc1)nn2[C@@H]1CCCN(C(=O)C#CCCO)C1 [Compound 21c, (R)-1-(3-(4-amino-3-(6-phenoxypyridin-3-yl)-1H-pyrazolo[3,4-d]pyrimidin-1-yl)piperidin-1-yl)-5-hydroxypent-2-yn-1-one]
IC50 [6]: 25200 nM

IC50 [2]: 9.6 nM
Structure (SMILES): C=CC(=O)N1CC[C@@H](n2nc(-c3ccc(Oc4ccccc4F)nc3)c3c(N)ncnc32)C1 [Compound 23b, (R)-1-(3-(4-amino-3-(6-(2-fluorophenoxy)pyridin-3-yl)-1H-pyrazolo[3,4-d]pyrimidin-1-yl)pyrrolidin-1-yl)prop-2-en-1-one]

IC50 [2]: 9.7 nM
Structure (SMILES): C=CC(=O)N1CC[C@@H](n2nc(-c3ccc(Oc4c(F)cccc4F)nc3)c3c(N)ncnc32)C1 [Compound 23c, (R)-1-(3-(4-amino-3-(6-(2,6-difluorophenoxy)pyridin-3-yl)-1H-pyrazolo[3,4-d]pyrimidin-1-yl)pyrrolidin-1-yl)prop-2-en-1-one]

IC50 [2]: 7.4 nM
Structure (SMILES): C=CC(=O)N1CC[C@@H](n2nc(-c3ccc(Oc4cccc(F)c4F)nc3)c3c(N)ncnc32)C1 [Compound 23d, (R)-1-(3-(4-amino-3-(6-(2,3-difluorophenoxy)pyridin-3-yl)-1H-pyrazolo[3,4-d]pyrimidin-1-yl)pyrrolidin-1-yl)prop-2-en-1-one]

oral bioavailability relative to ibrutinib ([7]; oral 10 mg/kg): 3.69 times
Structure (SMILES): C=CC(=O)N1CC[C@H](n2nc(-c3ccc(Oc4ccccc4)nc3F)c3c(N)ncnc32)C1 [Compound 24b, (S)-1-(3-(4-amino-3-(2-fluoro-6-phenoxypyridin-3-yl)-1H-pyrazolo[3,4-d]pyrimidin-1-yl)pyrrolidin-1-yl)prop-2-en-1-one]

AUC0-C(ng/h/mL) [7, 8]: 550 ng·h/mL
AUC0-t (ng/h/mL) [7, 8]: 544 ng·h/mL
bioavailability ([7]; rat, plasma, oral 10 mg/kg vs intravenous 2 mg/kg, mean n = 3): 12.5%
Cmax ([7]; rat, plasma, oral (intragastric) 10 mg/kg, mean n = 3): 254 ng/mL
Structure (SMILES): C=CC(=O)N1CCC[C@@H](n2nc(-c3ccc(Oc4ccccc4)cc3)c3c(N)ncnc32)C1 [Ibrutinib, reference compound]
